Here are results for two compounds from patent US20130274258A1, “CARBAZOLE AND CARBOLINE DERIVATIVES, AND PREPARATION AND THERAPEUTIC APPLICATIONS THEREOF” (PHILIP MORRIS PRODUCTS S.A., priority 2010, published 2013).

Some results are limits rather than exact numbers.

The test system of one data set is caspase 3 and 7. The data set can be described thus: Apoptosis induction in Jurkat cells, caspase 3 and 7 assay. It is filed as cell-based. How it is done: Compounds were assessed for their ability to induce apoptosis of Jurkat cells at 2 and 10 micromolar after 4 and 22 hours.
In order to firmly establish that the compounds of the invention cause cytotoxicity through apoptosis, IC50 of five compounds of the invention, doxorubicin and staurosporin were determined in the caspase assays; results are presented in Table 2. Importantly, the IC50 determined in the Alamar Blue and in the caspase assays were largely overlapping.

In data set [1] the test system is Jurkat cells. The data set can be described thus: Annexin V staining of Jurkat cells by flow cytometry. It is filed as cell-based. The note with it: Homo sapiens, 22 hours, 0.005 to 10 μM, read-out: half-maximal annexin V staining. How it is done: Jurkat cells were cultured for 22 hours in the presence of E3 at 1.1 μM from a stock solution at 10 mM in DMSO or in the presence of graded concentrations of E3 (0.005 to 10 μM). Then, the cell's were stained with phycoerythrin-labeled annexin V following the instructions of the manufacturer (Millipore) and analyzed by flow cytometry (Guava, Millipore) to determine annexin V staining.
(In general: A flow cytometer gives signals particle by particle.)

Data set [2] has as its system panel of human tumor cell lines. As to the kind of experiment: Sensitivity of a panel of human tumor cell lines, Alamar Blue. It is filed as cell-based. As to conditions: graded doses, 22 hours + 4 hours Alamar Blue. The procedure: Sensitivity and resistance of a panel of human tumor cell lines to treatment with E3 were investigated. An optimal number of cells (usually between 2'000 and 5'000 for adherent cells and 10'000 for cells growing in suspension) from the different tumor lines were treated with graded doses of E3. After 22 hours, Alamar Blue was added following the instructions provided by the manufacturer (Invitrogen). Four hours later, fluorescence of the wells was determined at 590 nm.
(In general: The colour change of resazurin is a common sign of viable cells or microbes.)

In another data set the test system is melanoma A2058. As to the kind of experiment: Xenograft model in nude mice, melanoma A2058. It is filed as in vivo, human. The procedure:
(§1) The compounds of the invention were evaluated in human tumor xenograft mouse models. Nude mice were subcutaneously implanted with tumor cells (melanoma A2058, colon carcinoma HCT116, fibrosarcoma HT1080 and acute myelocytic leukemia MV114) and when the tumor reached a volume of about 100-150 mm^3, treatment was initiated. Tumor growth was followed over time until tumor volume reached 1000-1500 mm^3 or up to 60 days. An example of how tumor developed over time when the animals were administered or not with E3 three times once a week (qwk×3) is presented in FIG. 7. […]

Data set [3] concerns acute myelocytic leukemia MV114. As to the kind of experiment: Xenograft model in nude mice, acute myelocytic leukemia MV114. The format is in vivo, human. The procedure:
as §1
(In general: Xenograft models place foreign cells or tissue in a host animal.)

The nature of data set [4]: Pharmacokinetics after intravenous injection, plasma concentration. The format is in vivo. As to conditions: mice, 15 mg/kg intravenous. How it is done:
The pharmacokinetics of E3 and E35 were investigated. Mice intravenously injected with 15 mg/kg of E3 were bled after 0, 1, 5, 10, 20, 30, 60, 120 and 480 minutes. […] For E35, mice intravenously injected with 30 mg/kg of […] were bled after 0, 1, 5, 10, 20, 30, 60, 120 and 480 minutes. […] Concentration then decreased steadily over the 8 hours of the study. During the first four hours after injection, circulating concentrations of E3 and E35 were found largely similar.

Another data set has as its system fibrosarcoma HT1080. The data set can be described thus: Xenograft model in nude mice, fibrosarcoma HT1080. It is filed as in vivo, human. The procedure: as §1
Another data set has as its system colon carcinoma HCT116. The data set can be described thus: Xenograft model in nude mice, colon carcinoma HCT116. The format is in vivo, human. How it is done: as §1
Data set [5] in a line: Solubilization in intravenous formulation. The format is physicochemical. The note with it: aqueous with cosolvent or surfactant or cyclodextrin; 5% Cremophor and 5% ethanol in water. The source says: This formulation was then used for the subsequent animal studies (maximal tolerated dose, pharmacokinetics and efficacy in cancer models).
The test system of another data set is human tumor xenograft. As to the kind of experiment: Human tumor xenograft mouse models, summary over models. The format is in vivo. As to conditions: nude mice, three times once a week (qwk×3), FIG. 7. The procedure: as §1
The target of the next data set is purified porcine tubulin (Sus scrofa, UniProt P02550+P02554). The data set can be described thus: Inhibition of 3H-labeled colchicine binding to purified tubulin, scintillation proximity assay. The note with it: graded doses. How it is done:
A series of compounds according to the invention and C14 vincristine and colchicine were tested for their capacity to inhibit ^3H-labeled colchicine binding to purified tubulin. Briefly, a limiting amount of tritium-labeled colchicine and graded doses of test compounds were added to purified porcine tubulin. After an incubation period, radioactivity associated with tubulin was determined using a scintillation proximity assay. […] By showing that these compounds interact with the colchicine binding site, it differentiates them from the tubulin inhibitors of the Vinca alkaloid- and taxane-types. The results also indicate that the compounds of the invention can be used in combination with the Vinca alkaloid- and taxane-types of tubulin inhibitors since they bind to a different aspect of tubulin, and likely affect tubulin polymerization via a different mechanism. The results also indicate that the compounds of the invention can be used even in patients who are refractory or non-responsive to other tubulin inhibitors, such as the tubulin inhibitors of the Vinca alkaloid- and taxane-types.

Data set [6] relates to Jurkat cells. The data set can be described thus: Jurkat cell viability, resazurin (Alamar Blue) assay. It is filed as cell-based. As to conditions: Homo sapiens, Jurkat. How it is done: The compounds were tested for pharmacological activity. In each of the tests, each compound was tested at […] in duplicates. […] The percentage of response relative to the DMSO control was then calculated for the mean value of the duplicates of each test. The values of the three tests were finally averaged and the standard deviations calculated.
Jurkat cells (10'000 cells/well) were incubated in the presence of various concentrations of compounds, doxorubicin or staurosporine. Twenty-two hours later, cells were incubated with resazurin (20 μg/ml) for 4 hours and fluorescence was measured at 590 nm.

Setting [7] is: median, endpoint = death or defined tumor volume, 23 without treatment.

purified porcine tubulin, sequence (P02554 whole entry): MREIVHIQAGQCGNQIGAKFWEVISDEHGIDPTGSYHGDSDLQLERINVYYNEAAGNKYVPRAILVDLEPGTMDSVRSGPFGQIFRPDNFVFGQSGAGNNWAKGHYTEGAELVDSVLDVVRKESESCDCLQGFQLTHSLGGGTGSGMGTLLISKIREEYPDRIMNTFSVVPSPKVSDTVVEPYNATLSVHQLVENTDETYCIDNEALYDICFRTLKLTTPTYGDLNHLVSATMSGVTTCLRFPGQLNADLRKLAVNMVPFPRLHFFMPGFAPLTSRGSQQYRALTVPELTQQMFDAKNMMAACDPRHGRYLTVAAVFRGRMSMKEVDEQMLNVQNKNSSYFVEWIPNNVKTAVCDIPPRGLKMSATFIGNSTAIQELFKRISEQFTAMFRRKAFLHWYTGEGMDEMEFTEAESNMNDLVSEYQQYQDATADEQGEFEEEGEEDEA
purified porcine tubulin, sequence (P02550 whole entry): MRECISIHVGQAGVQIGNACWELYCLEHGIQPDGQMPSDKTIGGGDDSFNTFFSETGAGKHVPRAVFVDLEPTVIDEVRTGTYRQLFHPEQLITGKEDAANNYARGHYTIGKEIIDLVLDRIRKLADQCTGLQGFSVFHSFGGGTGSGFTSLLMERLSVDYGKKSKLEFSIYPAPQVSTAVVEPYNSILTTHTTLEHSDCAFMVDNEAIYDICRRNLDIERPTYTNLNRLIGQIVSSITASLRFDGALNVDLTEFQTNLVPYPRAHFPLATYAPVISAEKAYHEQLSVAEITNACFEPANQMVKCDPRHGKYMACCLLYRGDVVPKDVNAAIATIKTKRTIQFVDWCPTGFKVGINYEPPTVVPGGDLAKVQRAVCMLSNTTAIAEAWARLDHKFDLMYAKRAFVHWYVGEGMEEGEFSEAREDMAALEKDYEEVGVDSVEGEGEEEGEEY

As for `Cc1nccc2c1[nH]c1ccc(-c3cc(Cl)cc(Cl)c3)cc12` [Example E3, 6-(3,5-dichlorophenyl)-1-methyl-9H-pyrido[3,4-b]indole], the “caspase 3 and 7 activity compared to solvent control (%)” value in the data set on caspase 3 and 7 (2 μM after 4 h) is −13.6%; in the data set on caspase 3 and 7 (2 μM after 22 h) it was 689.0%; with caspase 3 and 7 (10 μM after 4 h) it was 12.7%; with caspase 3 and 7 (10 μM after 22 h) it was 743.7%. Further, the half-inhibitory concentration (IC50) (commonly the concentration at which inhibition is half-maximal) with caspase 3 and 7 (Homo sapiens, Jurkat cells, caspase 3/7 assay) came out at 0.054 µM; in the data set on Jurkat cells [6], 89 nM. In addition, the EC50 with Jurkat cells [1] fell in the range of 100 to 200 nM. In data set [2], the “sensitivity of tumor cell lines of hematopoietic origin versus other cell lines” value is “more sensitive than the other cell lines”. In addition, the “% time delay to reach study endpoint relative to no treatment” value is 22% in the data set with melanoma A2058 (best treatment), 52% in data set [3] (best treatment), 91% in the data set with fibrosarcoma HT1080 (best treatment) and 57% in the data set with colon carcinoma HCT116 (best treatment). For the same compound, the “Days to reach study endpoint with best treatment” value is recorded as 28 days in the data set on melanoma A2058 (setting [7]); 32 days in data set [3] (median, endpoint = death or defined tumor volume, 21 without treatment); 44 days in the data set on fibrosarcoma HT1080 (setting [7]); 36 days in the data set with colon carcinoma HCT116 (setting [7]). The “exposure (plasma concentration) for several hours” value in data set [4] is 3 to 10 µg/mL. This compound also had a concentration at 1 min in [4] (mouse, plasma, 1 minute after injection) of 60000 ng/mL. The compound also came in with a concentration at 20 min in [4] (mouse, plasma, 20 minutes) of 8000 ng/mL. This compound registered a concentration at 8 h in data set [4] (mouse, plasma, 8 hours) of 3000 ng/mL. For the same compound, in [5], the solubility (usually how much of the substance goes into solution per volume) is no more than 3300 µg/mL. Moreover, in the data set with human tumor xenograft, the “effect on tumor growth” value is “delayed tumor growth”. Further, on purified porcine tubulin, the “inhibition of 3H-labeled colchicine binding to tubulin” value is “inhibited binding of colchicine”.
Turning to `CC[C@]1(O)C[C@@H]2CN(CCc3c([nH]c4ccccc34)[C@@](C(=O)OC)(c3cc4c(cc3OC)N(C)[C@H]3[C@@](O)(C(=O)OC)[C@H](OC(C)=O)[C@]5(CC)C=CCN6CC[C@]43[C@@H]65)C2)C1` [Vinblastine, reference compound], the “Control with reference compound and days to study endpoint” value with melanoma A2058 (reference compound) is given as “Vinblastine, 45 days”; in [3] (reference compound), “not reached by day 58 days”.
